This note sets out measurements from patent US5498602A, “Oligosaccharide aromatic glycoside and sulfate thereof” (priority 1991, dated 1996).

Bounds are passed on as bounds.

One data set has as its system HIV. Put plainly: Anti-AIDS (HIV) activity in HIV-infected MT-4 cells (MTT method). The class given is cell-based. The settings on record: for EC50 (50% effective concentration, prevention of 50% of cytopathogenic effects of HIV): 37° C., MTT method. Here is the method: (§1) Evaluation method: Test substances having various concentrations were placed in a 96-well microtiter plate along with HIV-infected MT-4 cells (2.5×10^4 /well, MOI: 0.01) immediately after the infection thereof. In order to ascertain the cytotoxicity of the test substance with respect to the MT-4 cells, non-infected cells were cultured in an identical manner along with the test substances of various concentrations. After culturing for 5 days at a temperature of 37° C. in a CO2 incubator, the number of living cells was determined using the MTT method. The antiviral activity is shown in terms of the concentration which prevented 50% of the cytopathogenic effects of the HIV virus (EC50 : 50% effective concentration) and the cytotoxicity is shown in terms of the concentration at which the cytotoxicity of the test substance reaches 50% (CC50 : 50% cytotoxic concentration).Furthermore, the selectivity index (S.I.) is calculated as CC50 /EC50.
(§2) (Reference: Pauwels, et al., J. Viral Methods, 20 (1988) 309-321). Using this method, the compounds of Examples 30-43 were tested for anti-HIV activity. The compounds shown in Table 2 (Examples 35~38) are produced by means of novel sulfation methods. For the purposes of comparison, the conventional anti-AIDS agents AZT (3'-azido-2',3'-dideoxythymidine) and dextran sulfate were also tested, and the results thereof are appended as comparative data.
For orientation: Tetrazolium dyes change colour on reduction, which living cells bring about.

For the next data set, the system named is MT-4 cells. Put plainly: Cytotoxicity with respect to non-infected MT-4 cells (MTT method). The settings on record: 5 days; for CC50 (50% cytotoxic concentration): 37° C., MTT method. The class given is cell-based. Here is the method: as §1, §2
Setting [1] is: HIV-infected MT-4 cells, MOI 0.01, 5 days.

On to `Cc1cn([C@H]2C[C@H](N=[N+]=[N-])[C@@H](CO)O2)c(=O)[nH]c1=O` [AZT, 3'-azido-2',3'-dideoxythymidine, reference compound], for which the “SI (selectivity index, CC50/EC50)” value in the data set with HIV (CC50/EC50, MT-4 cells, HIV) is on record as 2700. The EC50 in the data set on HIV (Human immunodeficiency virus 1, MT4, 120 h, AZT, footnote: units are μM, HIV-infected MT-4 cells, MOI 0.01, 5 days, read-out: EC50 (50% effective concentration)) came to 0.004 µM. Also, in the data set with MT-4 cells (AZT, footnote: units are μM, read-out: CC50 (50% cytotoxic concentration)), the CC50 is 10.8 µM.
For dextran sulfate [reference compound], in the data set on HIV (setting [1]), the “EC50 (50% effective concentration, prevention of 50% of cytopathogenic effects of HIV)” value stood at 0.50 µg/mL. Further, the “CC50 (50% cytotoxic concentration)” value in the data set with MT-4 cells is greater than 1000 µg/mL.
“heptyloxyphenyl β-D-galactopyranosyl-(1→4)-{β-D-galactopyranosyl-(1→4)}2 -β-D-glucopyranoside sulfate [Example 42]”: the “EC50 (50% effective concentration, prevention of 50% of cytopathogenic effects of HIV)” value in the data set with HIV (setting [1]) is 0.23 µg/mL. Also, the “CC50 (50% cytotoxic concentration)” value with MT-4 cells was greater than 1000 µg/mL.
Consider “octyloxyphenyl β-D-galactopyranosyl-(1→4)-{β-D-galactopyranosyl-(1→4)}2 -β-D-glucopyranoside sulfate [Example 40]”, for which the “EC50 (50% effective concentration, prevention of 50% of cytopathogenic effects of HIV)” value in the data set with HIV (setting [1]) stood at 0.95 µg/mL. For the same compound, in the data set on MT-4 cells, the “CC50 (50% cytotoxic concentration)” value is greater than 1000 µg/mL.
For “octyloxyphenyl β-D-galactopyranosyl-(1→4)-β-D-galactopyranosyl-(1→4)-β-D-glucopyranoside sulfate [Example 41]” the same measures were 1.12 µg/mL and greater than 1000 µg/mL.
As to “octylphenyl β-D-galactopyranosyl-(1→4)-{β-D-galactopyranosyl-(1→4)}2 -β-D-glucopyranoside sulfate [Example 39]”, the “EC50 (50% effective concentration, prevention of 50% of cytopathogenic effects of HIV)” value in the data set on HIV (setting [1]) stood at 0.82 µg/mL. Moreover, the “CC50 (50% cytotoxic concentration)” value with MT-4 cells is greater than 1000 µg/mL.
As for “p-(1,1,3,3-tetramethylbutyl)phenyl β-D-galactopyranosyl-(1→4)-{β-D-galactopyranosyl-(1→4)}2 -β-D-glucopyranoside sulfate [Example 43]”, the “EC50 (50% effective concentration, prevention of 50% of cytopathogenic effects of HIV)” value in the data set with HIV (setting [1]) was found to be 0.04 µg/mL. For the same compound, the “CC50 (50% cytotoxic concentration)” value with MT-4 cells was greater than 1000 µg/mL.
In the same order, the values of “p-(1,1,3,3-tetramethylbutyl)phenyl β-D-glucopyranosyl-(1→3)-{β-D-glucopyranosyl-(1→3)}3 -β-D-glucopyranoside sulfate [Example 35]” are 0.038 µg/mL and greater than 1000 µg/mL.
For “p-(1,1,3,3-tetramethylbutyl)phenyl β-D-glucopyranosyl-(1→3)-{β-D-glucopyranosyl-(1→3)}m -β-D-glucopyranoside sulfate [Example 38]”, in the data set with HIV (setting [1]), the “EC50 (50% effective concentration, prevention of 50% of cytopathogenic effects of HIV)” value worked out at 0.020 µg/mL. Also, in the data set on MT-4 cells, the “CC50 (50% cytotoxic concentration)” value was greater than 1000 µg/mL.
For “p-heptyloxyphenyl β-D-glucopyranosyl-(1→3)-{β-D-glucopyranosyl (1→3)}3 -β-D-glucopyranoside sulfate [Example 36]” the same measures were 0.062 µg/mL and greater than 1000 µg/mL.
Turning to “p-heptyloxyphenyl β-D-glucopyranosyl-(1→3)-{β-D-glucopyranosyl-(1→3)}3 -β-D-glucopyranoside sulfate [Example 33]”, in the data set on HIV (setting [1]), the “EC50 (50% effective concentration, prevention of 50% of cytopathogenic effects of HIV)” value came to 0.77 µg/mL. Besides, in the data set with MT-4 cells, the “CC50 (50% cytotoxic concentration)” value was greater than 1000 µg/mL.
“p-octylphenyl β-D-glucopyranosyl-(1→3)-{β-D-glucopyranosyl (1→3)}3 -β-D-glucopyranoside sulfate [Example 30]”: the “EC50 (50% effective concentration, prevention of 50% of cytopathogenic effects of HIV)” value in the data set with HIV (setting [1]) was 0.62 µg/mL. For the same compound, the “CC50 (50% cytotoxic concentration)” value with MT-4 cells is greater than 1000 µg/mL.
Regarding “p-octylphenyl β-D-glucopyranosyl-(1→3)-{β-D-glucopyranosyl (1→3)}3 -β-D-glucopyranoside sulfate [Example 37]”, in the data set with HIV (setting [1]), the “EC50 (50% effective concentration, prevention of 50% of cytopathogenic effects of HIV)” value was 0.080 µg/mL. Besides, the “CC50 (50% cytotoxic concentration)” value in the data set with MT-4 cells is greater than 1000 µg/mL.
As for “p-octylphenyl β-D-glucopyranosyl-(1→3)-{β-D-glucopyranosyl (1→3)}5 -β-D-glucopyranoside sulfate [Example 34]”, the “EC50 (50% effective concentration, prevention of 50% of cytopathogenic effects of HIV)” value with HIV (setting [1]) was 0.31 µg/mL. For the same compound, the “CC50 (50% cytotoxic concentration)” value in the data set on MT-4 cells is greater than 1000 µg/mL.
For “p-pentylphenyl β-D-glucopyranosyl-(1→3)-{β-D-glucopyranosyl (1→3)}3 -β-D-glucopyranoside sulfate [Example 31]” the same measures were 0.75 µg/mL and greater than 1000 µg/mL.
Consider “sulfated p-heptyloxyphenyl β-D-glucopyranosyl-(1→3)-{β-D-glucopyranosyl-(1→3)}3 -β-D-glucopyranoside [Example 32]”, for which the “EC50 (50% effective concentration, prevention of 50% of cytopathogenic effects of HIV)” value in the data set on HIV (setting [1]) was found to be 0.72 µg/mL. Moreover, in the data set with MT-4 cells, the “CC50 (50% cytotoxic concentration)” value was greater than 1000 µg/mL.
